These results are taken from ChEMBL document CHEMBL1136705, “Analogues of dealanylalahopcin are inhibitors of human HIF prolyl hydroxylases” (Bioorg Med Chem Lett, 2003).

This experiment concerns the target Prolyl hydroxylase EGLN2 (Homo sapiens, UniProt Q96KS0). Kind of experiment: Inhibitory activity against purified fusion of maltose binding with PHD1 as enzyme and […].

Sequence of Prolyl hydroxylase EGLN2 (Q96KS0 whole entry, the tested form may be a part): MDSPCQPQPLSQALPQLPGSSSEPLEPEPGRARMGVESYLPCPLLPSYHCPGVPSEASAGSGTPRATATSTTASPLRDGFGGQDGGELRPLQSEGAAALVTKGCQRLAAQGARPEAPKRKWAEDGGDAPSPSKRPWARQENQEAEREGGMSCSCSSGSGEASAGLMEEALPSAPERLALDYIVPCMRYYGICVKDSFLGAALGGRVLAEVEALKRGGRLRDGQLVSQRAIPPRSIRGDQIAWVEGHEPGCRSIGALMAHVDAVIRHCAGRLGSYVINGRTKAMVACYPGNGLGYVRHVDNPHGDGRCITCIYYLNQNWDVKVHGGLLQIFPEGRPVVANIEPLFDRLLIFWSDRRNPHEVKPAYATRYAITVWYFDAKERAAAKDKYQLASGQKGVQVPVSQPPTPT

By IC50 is commonly meant the concentration needed to halve the response being measured. In turn, `O=C(O)CC1CC(=O)N(O)C1=O` (racemic) came in with an IC50 of 1 mM.
